Measurements as given in ChEMBL document CHEMBL1201862, “PubChem BioAssay data set” (2004).
Calls of active or inactive are those of the source. Cut-off read from the data, not from the text of the source, for most assays here: active = EC50 of 20 µM or less and inactive = more.

Tests used:
Format in all cases: functional
[1] = target: T1, Endoribonuclease toxin MazF (Escherichia coli K-12, UniProt P0AE70); test: MazF toxin RNase activators, dose response, biochemical, fluorescence, single-stranded RNA substrate, uHTS hits (AID 588481)
T1 sequence (P0AE70 whole entry): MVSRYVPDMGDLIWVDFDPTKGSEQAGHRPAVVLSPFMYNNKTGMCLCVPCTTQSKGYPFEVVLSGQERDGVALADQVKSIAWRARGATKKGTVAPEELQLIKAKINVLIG

[2] = target: T2, Sentrin-specific protease 1 (Homo sapiens, UniProt Q9P0U3); test: Dose response confirmation of small molecule inhibitors of the catalytic domain of the SUMO protease, SENP1 in a FRET assay.; conditions: read-out: IC50_Mean
T2 sequence (Q9P0U3 whole entry): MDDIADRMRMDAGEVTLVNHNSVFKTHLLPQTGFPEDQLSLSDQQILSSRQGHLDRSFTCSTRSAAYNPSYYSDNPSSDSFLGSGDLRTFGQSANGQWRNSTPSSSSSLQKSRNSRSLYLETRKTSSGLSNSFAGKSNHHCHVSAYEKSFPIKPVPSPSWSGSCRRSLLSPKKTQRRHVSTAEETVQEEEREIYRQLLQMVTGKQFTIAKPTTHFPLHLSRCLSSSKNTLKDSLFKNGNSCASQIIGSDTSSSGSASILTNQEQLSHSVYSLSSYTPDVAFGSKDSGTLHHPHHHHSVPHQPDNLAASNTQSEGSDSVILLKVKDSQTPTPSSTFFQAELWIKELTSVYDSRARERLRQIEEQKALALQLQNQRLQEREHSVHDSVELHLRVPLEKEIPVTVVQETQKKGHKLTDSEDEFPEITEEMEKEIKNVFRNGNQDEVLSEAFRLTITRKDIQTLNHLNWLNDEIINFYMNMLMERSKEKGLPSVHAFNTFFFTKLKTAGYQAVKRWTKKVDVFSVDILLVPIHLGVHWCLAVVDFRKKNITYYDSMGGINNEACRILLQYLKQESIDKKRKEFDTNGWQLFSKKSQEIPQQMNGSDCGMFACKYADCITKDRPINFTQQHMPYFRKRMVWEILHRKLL

[3] = target: T1, Endoribonuclease toxin MazF; test: fluorescent RNA oligo signal without MazF, dose response, counter-screen for MazEF activator project, biochemical, fluorescence, single-stranded RNase substrate (AID 588502)

## Oc1ccc(Cl)cc1C1=Nc2ccccc2N=C(c2ccco2)C1
[1]
  EC50: > 99 µM (inactive)
[2]
  IC50: 8.31 µM (active)
[3]
  EC50: > 99 µM (inactive)
